Data taken from patent publication US20260306460A1, “COMPOSITION FOR REMOVING AND INHIBITING SENESCENT CELLS, AND USES THEREOF” (LIFECEUTIX CO., LTD., priority 2023, published 2026).

Tests used:
Type in all cases: in vivo, mouse
naturally aged mice = assay: Anti-aging evaluation in naturally aged mice, Example 31, Table 55; conditions: for Femur Ctsk mRNA / Kidney Agtr1a mRNA / Liver IL6 mRNA / Liver MMP3 mRNA / Liver p16 mRNA / Open Field Test Time in Center: untreated = 100%; for Heart Sur2a mRNA / Joint Col2a1 mRNA / Skin Col1a1 mRNA / Skin SDF1 mRNA: untreated = 1.0; for Muscle Mass: untreated 0.64 g; for Fat Mass: untreated 0.82 g; for Cataract incidence: untreated 83%;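 on all read-outs here: Vehicle-dosed control mice received solution alone at matching volume, values compare test-compound-treated aged mice against that control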
Experimental: After the end of drug administration, the method described in each example below was performed. […] The mRNA amounts of p16, MMP3, and IL6 after natural aging was induced were calculated as 100% and compared with the mRNA amounts of p16, MMP3, and IL6 after treatment with the test compound. In addition, an open field test for the analysis of aging-related frailty, agtr1a mRNA analysis for kidney damage and disease evaluation, col1a1 and SDF1 mRNA analysis for skin aging evaluation such as wrinkles/loss of elasticity/hyperpigmentation, col2a1 mRNA analysis for evaluating joint aging such as osteoarthritis, sur2a mRNA analysis for evaluating cardiac aging such as decreased cardiac load resistance, ctsk mRNA analysis for evaluating bone diseases due to aging such as osteoporosis, muscle tissue weight for analyzing sarcopenia, fat tissue weight for analyzing lipoatrophy, and cataract incidence analysis were performed in mice. For cataract incidence analysis, the drug was administered twice a week under the conditions specified above, and biweekly examinations were conducted until death.

[1] = test system: carbon tetrachloride-induced liver fibrosis mice; assay: Carbon tetrachloride-induced liver fibrosis mice, Example 31, Table 57; conditions: CCl4-induced liver fibrosis mice, untreated = 100%
Summary of the method: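 Mice with induced hepatic fibrosis received either the test compound or, as controls, an equal volume of vehicle solution alone. Once dosing ended, liver tissue was harvested and total RNA was isolated. cDNA was synthesized from this RNA, and quantitative RT-PCR was run on it to measure hepatic mRNA levels of the fibrosis- and senescence-related genes.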

[2] = test system: bleomycin-induced pulmonary fibrosis mice; assay: Bleomycin-induced pulmonary fibrosis mice, Example 31, Table 56; conditions: untreated = 100%
Summary of the method: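 Mice with bleomycin-induced pulmonary fibrosis, untreated or given test compound, with vehicle-only controls. Lung tissue collected for RNA extraction and qRT-PCR analysis.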

[3] = test system: carbon tetrachloride-induced liver fibrosis C57BL6J mice; assay: Carbon tetrachloride liver disease in mice (p16, IL6, Col1a1 mRNA, AST), Example 26, Table 50; conditions: daily for 21 days, untreated 100%; for Col1a1 mRNA / IL6 mRNA / p16 mRNA: liver
Experimental: Eight-week-old male C57BL6J mice (KRIBB Laboratory Animal Resource Center) were acclimated to the experimental environment for one week. Carbon tetrachloride (CCL4) was administered intraperitoneally at a concentration of 0.5 μl/g, and aging was induced for at least six weeks. The aging-induced mice were randomly assigned to experimental and control groups. […] The control group received only the solution in the same volume. After the drug administration was terminated, mice were sacrificed, and RNA was extracted from the liver in the same manner as in Example 7-2 of WO2023-085787 A1, and qRT-PCR was performed using the synthesized cDNA. […] The mRNA and AST amounts after aging was induced were calculated as 100% and compared with the mRNA amount of p16 after treatment with the test compound.

[4] = test system: naturally aged C57BL6J mice; assay: Cardiac aging (cardiomyocyte size, Sur2a mRNA) in naturally aged mice, Example 21-13, Table 28; conditions: heart; for Cardiomyocyte cross-sectional area (μm2): untreated aged 372 (±9); for Sur2a mRNA (fold): untreated aged = 1
Experimental: 22-month-old female C57BL6J mice (KRIBB Laboratory Animal Resource Center) were acclimated to the experimental environment for one week, after which the aged mice were randomly assigned to experimental and control groups. Eight-week-old, non-aged mice served as controls. LX-403 was mixed in a 10% ethanol solution of PEG400 and administered orally at a concentration of 25 mg/kg daily for 21 days, or administered to the skin, joints, or eyes at a concentration of 1 μM. LX-1801 was mixed in distilled water with 4% DMSO, 30% PEG300, and 5% Tween80 and administered to the skin, joints, or eyes at a concentration of 0.4 μM daily for 21 days. LX-2001 was mixed in PBS and administered to the skin, joints, or eyes at a concentration of […] daily for 21 days. LX-2002 was mixed in distilled water with 4% DMSO, 30% PEG300, and 5% Tween80 and administered to the skin, joints, or eyes at a concentration of 2 μM daily for 21 days. […] LX-2005 was mixed in distilled water with 4% DMSO, 30% PEG300, and 5% Tween80 and administered to the skin, joints, or eyes at a concentration of 90 μM daily for 21 days. LX-2007 was mixed in distilled water with 4% DMSO, 30% PEG300, and 5% Tween80 and administered to the skin, joints, or eyes at a concentration of 90 μM daily for 21 days. […] LX-3002 was mixed in distilled water with 4% DMSO, 30% PEG300, and 5% Tween80 and administered orally at a concentration of 10 mg/kg daily for 21 days. […] LX-5411 was mixed in 5% PBS and administered orally at a concentration of 10 mg/kg daily for 21 days or administered to the skin, joints, or eyes at a concentration of 3 μM. LX-5701 was mixed in PBS and administered orally at a concentration of 360 mg/kg daily for 21 days. LX-6807 was mixed in saline and administered intraperitoneally at a concentration of 1 mg/kg daily for 21 days. LX-2101 or LX-2102 was mixed in PBS solution with 5% DMSO and administered intraperitoneally at a concentration of 20 mg/kg or 10 mg/kg, respectively, daily for 21 days. The control group received only the solution in the same volume. After the end of drug administration, the methods described in each example below were performed.
At the histological level, cardiac aging is characterized by the loss of ventricular cardiomyocytes due to a decreased ability to replace apoptotic or necrotic cardiomyocytes, leading to hypertrophy of the remaining cardiomyocytes. To assess age-related cardiac hypertrophy, frozen cardiac tissue sections were stained with hematoxylin/eosin (H/E) and the thickness of ventricular cardiomyocytes was observed under an optical microscope.
Furthermore, cardiac aging is characterized by decreased stress tolerance, which is known to be due to decreased expression of ATP-sensitive potassium (KATP) channels. RNA was extracted from heart tissue as described in Example 7-2 of WO2023-085787 A1, and qRT-PCR was performed on Sur2a, a regulatory subunit of the KATP channel, using the synthesized cDNA.

[5] = test system: doxorubicin-induced aged C57BL6J mice; assay: Liver damage (AST, ALT) in doxorubicin-aged mice, Example 22-8, Table 37; conditions: serum, amount after aging calculated as 100%
Experimental: Eight-week-old male C57BL6J mice (KRIBB Laboratory Animal Resource Center) were acclimated to the experimental environment for one week. […] The aging-induced mice were randomly assigned to experimental and control groups. […] The control group received only the solution in the same volume.
The amounts were measured spectrophotometrically using a kit (Sigma) according to the manufacturer's instructions. […] The amount of each factor after aging was calculated as 100% and compared with the amount of each factor after treatment with the test compound.

Compound: O=C(C(C[N+](=O)[O-])=NO)N1CCN(C(c2ccc(Cl)cc2)c2ccc(Cl)cc2)CC1 [LX-403]
- Femur Ctsk mRNA (naturally aged mice): 22%
- Heart Sur2a mRNA (naturally aged mice): 2.9 fold
- Joint Col2a1 mRNA (naturally aged mice): 3.4 fold
- Kidney Agtr1a mRNA (naturally aged mice): 64%
- Liver IL6 mRNA (naturally aged mice): 53%
- Liver MMP3 mRNA (naturally aged mice): 45%
- Liver p16 mRNA (naturally aged mice): 34%
- Open Field Test Time in Center (naturally aged mice): 237%
- Skin Col1a1 mRNA (naturally aged mice): 2.8 Fold
- Skin SDF1 mRNA (naturally aged mice): 2.7 fold
- Muscle Mass (naturally aged mice): 0.76 g
- Fat Mass (naturally aged mice): 0.98 g
- Cataract incidence (naturally aged mice): 64%
- Liver p16 mRNA [1]: 51 (±3.8) %
- Col1a1 mRNA [1]: 48 (±5.8) %
- Lung p16 mRNA [2]: 32 (±1.4) %
- Col1a1 mRNA [2]: 44 (±3.1) %

Compound: S=C(N/N=C1\CCCc2cccnc21)N1CCN(c2ccccn2)CC1 [LX-801]
- Femur Ctsk mRNA (naturally aged mice): 70%
- Heart Sur2a mRNA (naturally aged mice): 2.8 fold
- Joint Col2a1 mRNA (naturally aged mice): 2.7 fold
- Kidney Agtr1a mRNA (naturally aged mice): 55%
- Liver IL6 mRNA (naturally aged mice): 64%
- Liver MMP3 mRNA (naturally aged mice): 35%
- Liver p16 mRNA (naturally aged mice): 53%
- Open Field Test Time in Center (naturally aged mice): 222%
- Skin Col1a1 mRNA (naturally aged mice): 2.1 Fold
- Skin SDF1 mRNA (naturally aged mice): 2.1 fold
- Muscle Mass (naturally aged mice): 0.77 g
- Fat Mass (naturally aged mice): 1.09 g
- Cataract incidence (naturally aged mice): 57%
- Liver p16 mRNA [1]: 57 (±9.3) %
- Col1a1 mRNA [1]: 63 (±11.5) %
- Lung p16 mRNA [2]: 48 (±4.8) %
- Col1a1 mRNA [2]: 43 (±10.6) %

Compound: C[C@@H]1CC[C@@]23C[C@H](O)C(=O)[C@@]2(O)[C@]1(C)[C@H](OC(=O)CCl)C[C@@H](C1=CCn2c(=O)n(-c4ccccc4)c(=O)n2C1)[C@@H]3C [LX-1801, (2S,3aS,4S,5R,7R,8S,8aS,11R)-7-(1,3-Dioxo-2-phenyl-2,3,5,8-tetrahydro-1H-[1,2,4]triazolo[1,2-a]pyridazin-6-yl)-2,3a-dihydroxy-4,8,11-trimethyl-3-oxooctahydro-1H-4,8a-propanoazulen-5-yl 2-Chloroacetate]
- Femur Ctsk mRNA (naturally aged mice): 69%
- Heart Sur2a mRNA (naturally aged mice): 2.7 fold
- Joint Col2a1 mRNA (naturally aged mice): 2.6 fold
- Kidney Agtr1a mRNA (naturally aged mice): 48%
- Liver IL6 mRNA (naturally aged mice): 53%
- Liver MMP3 mRNA (naturally aged mice): 49%
- Liver p16 mRNA (naturally aged mice): 42%
- Open Field Test Time in Center (naturally aged mice): 287%
- Skin Col1a1 mRNA (naturally aged mice): 1.9 Fold
- Skin SDF1 mRNA (naturally aged mice): 2.2 fold
- Muscle Mass (naturally aged mice): 0.78 g
- Fat Mass (naturally aged mice): 1.16 g
- Cataract incidence (naturally aged mice): 35%
- Liver p16 mRNA [1]: 55 (±9.8) %
- Col1a1 mRNA [1]: 58 (±7.9) %
- Lung p16 mRNA [2]: 53 (±13.7) %
- Col1a1 mRNA [2]: 38 (±20.8) %

Compound: CCCC\C=C/C=C/C=C\CCCCCCCC(=O)O [LX-2707, Punicic acid]
- Col1a1 mRNA [3]: 76 (±2.5) %
- IL6 mRNA [3]: 56 (±2.1) %
- p16 mRNA [3]: 68 (±1.6) %
- Serum AST [3]: 79 (±5.6) %
- Cardiomyocyte cross-sectional area (μm2) [4]: 331 (±15.7) μm2
- ALT [5]: 76 (±5.6) %
- AST [5]: 70 (±3.2) %

Compound: COC(=O)[C@H]1Cc2c([nH]c3ccccc23)[C@H](c2ccc(S(C)(=O)=O)cc2)N1C(=O)CCl [LX-5401, methyl (1S,3R)-2-(2-chloroacetyl)-1-(4-(methylsulfonyl)phenyl)-2,3,4,9-tetrahydro-1H-pyrido[3,4-b]indole-3-carboxylate]
- Femur Ctsk mRNA (naturally aged mice): 42%
- Heart Sur2a mRNA (naturally aged mice): 1.7 fold
- Joint Col2a1 mRNA (naturally aged mice): 1.6 fold
- Kidney Agtr1a mRNA (naturally aged mice): 73%
- Liver IL6 mRNA (naturally aged mice): 55%
- Liver MMP3 mRNA (naturally aged mice): 81%
- Liver p16 mRNA (naturally aged mice): 73%
- Open Field Test Time in Center (naturally aged mice): 179%
- Muscle Mass (naturally aged mice): 0.69 g
- Fat Mass (naturally aged mice): 0.89 g
- Cataract incidence (naturally aged mice): 77%
- Liver p16 mRNA [1]: 61 (±13.2) %
- Col1a1 mRNA [1]: 72 (±5.9) %
- Lung p16 mRNA [2]: 67 (±8.1) %
- Col1a1 mRNA [2]: 59 (±12.8) %

Compound: C#CC(=O)N1[C@@H](CCCC)Cc2cc(OC)ccc2[C@@H]1c1ccc(NC23CC4CC(CC(C4)C2)C3)cc1 [LX-5411]
- Femur Ctsk mRNA (naturally aged mice): 71%
- Heart Sur2a mRNA (naturally aged mice): 2.5 fold
- Joint Col2a1 mRNA (naturally aged mice): 2.0 fold
- Kidney Agtr1a mRNA (naturally aged mice): 68%
- Liver IL6 mRNA (naturally aged mice): 63%
- Liver MMP3 mRNA (naturally aged mice): 58%
- Liver p16 mRNA (naturally aged mice): 65%
- Open Field Test Time in Center (naturally aged mice): 214%
- Skin Col1a1 mRNA (naturally aged mice): 1.6 Fold
- Skin SDF1 mRNA (naturally aged mice): 1.9 fold
- Muscle Mass (naturally aged mice): 0.74 g
- Fat Mass (naturally aged mice): 1.21 g
- Cataract incidence (naturally aged mice): 52%
- Liver p16 mRNA [1]: 53 (±9.9) %
- Col1a1 mRNA [1]: 43 (±16.1) %
- Lung p16 mRNA [2]: 61 (±13.2) %
- Col1a1 mRNA [2]: 44 (±11.1) %

Compound: O=C1C2CCN(CC2)C1CNC(=O)C(F)(F)F (stereo not drawn) [LX-5701]
- Col1a1 mRNA [3]: 62 (±6.7) %
- IL6 mRNA [3]: 53 (±17.6) %
- p16 mRNA [3]: 70 (±6.2) %
- Serum AST [3]: 77 (±8.0) %
- Cardiomyocyte cross-sectional area (μm2) [4]: 297 (±20) μm2
- Sur2a mRNA (fold) [4]: 2.8 (±0.2) fold
- ALT [5]: 64 (±15.7) %
- AST [5]: 72 (±13.5) %

Compound: Cc1cccc([C@H](C)c2cnc[nH]2)c1C [LX-6807, Dexmedetomidine]
- Col1a1 mRNA [3]: 51 (±3.1) %
- IL6 mRNA [3]: 58 (±2.6) %
- p16 mRNA [3]: 67 (±3.0) %
- Serum AST [3]: 75 (±1.4) %
- Cardiomyocyte cross-sectional area (μm2) [4]: 281 (±47.1) μm2
- Sur2a mRNA (fold) [4]: 3.0 (±0.2) fold
- ALT [5]: 80 (±6.7) %
- AST [5]: 75 (±7.0) %

Compound: Tocofersolan [LX-3001]
- Col1a1 mRNA [3]: 71 (±2.4) %
- IL6 mRNA [3]: 65 (±3.4) %
- p16 mRNA [3]: 76 (±3.7) %
- Serum AST [3]: 82 (±4.5) %
- Cardiomyocyte cross-sectional area (μm2) [4]: 345 (±27.6) μm2
